Measurements taken from patent US20180369087A1, “Hydrogen Peroxide Booster System for Enhanced Teeth Whitening” (Colgate-Palmolive Company, priority 2015, published 2018).

Test: SNOBS stability in anhydrous formulation, HPLC
Format: physicochemical
Conditions: for % SNOBS: composition of Table 5
Protocol: The composition of Table 5 was aged at 40° C. and at room temperature for 8 weeks and 13 weeks respectively. The percentage of SNOBS remaining was quantified by HPLC. The results in Table 6 indicate that there is sufficient SNOBS remaining in the composition after aging at both room temperature and at 40° C. to be efficacious as a booster for the peroxide component in a tooth whitening composition.

## CCCCCCCCC(=O)Oc1ccc(S(=O)(=O)[O-])cc1.[Na+] [SNOBS, sodium nonanoyloxybenzenesulfonate]
4 weeks/40° C.
  % Loss of SNOBS: 3.1%
  % SNOBS: 9.36%
8 weeks/40° C.
  % Loss of SNOBS: 6.4%
  % SNOBS: 8.99%
13 weeks/Room Temperature (RT)
  % Loss of SNOBS: 4.06%
  % SNOBS: 9.21%
Initial
  % SNOBS: 9.6%
